According to the CheMixHub viscosity set:

Assay: xn = mol fraction of the nth substance listed

CCCCOC(C)=O + CCCCO
viscosity [mPa·s], 101 kPa
Conditions | x1 = 0.1 | x1 = 0.1944 | x1 = 0.2974 | x1 = 0.3991 | x1 = 0.4988 | x1 = 0.6008 | x1 = 0.6913 | x1 = 0.7961 | x1 = 0.8993
298.15 K | 2.212 | 1.921 | 1.641 | 1.407 | 1.212 | 1.041 | 0.923 | 0.813 | 0.727
303.15 K | 1.962 | 1.713 | 1.475 | 1.262 | 1.091 | 0.948 | 0.839 | 0.755 | 0.688
308.15 K | 1.75 | 1.532 | 1.31 | 1.146 | 0.993 | 0.876 | 0.789 | 0.703 | 0.646
313.15 K | 1.558 | 1.365 | 1.184 | 1.037 | 0.908 | 0.806 | 0.731 | 0.662 | 0.619

CCCN + CCCCO
Conditions | viscosity [mPa·s]
298.15 K, 100 kPa, x2 = 0.0488 | 0.3946
298.15 K, 100 kPa, x2 = 0.0977 | 0.4367
298.15 K, 100 kPa, x2 = 0.2026 | 0.552
298.15 K, 100 kPa, x2 = 0.2966 | 0.6772
298.15 K, 100 kPa, x2 = 0.4 | 0.8384
298.15 K, 100 kPa, x2 = 0.4939 | 1.003
298.15 K, 100 kPa, x2 = 0.58 | 1.166
298.15 K, 100 kPa, x2 = 0.645 | 1.305
298.15 K, 100 kPa, x2 = 0.7024 | 1.45
298.15 K, 100 kPa, x2 = 0.7958 | 1.721
298.15 K, 100 kPa, x2 = 0.9025 | 2.113
303.15 K, 101 kPa, x1 = 0.01186 | 2.214
303.15 K, 101 kPa, x1 = 0.02208 | 2.185
303.15 K, 101 kPa, x1 = 0.03071 | 2.16
303.15 K, 101 kPa, x1 = 0.04153 | 2.133
303.15 K, 101 kPa, x1 = 0.04894 | 2.113
303.15 K, 101 kPa, x1 = 0.06228 | 2.083
303.15 K, 101 kPa, x1 = 0.07291 | 2.053
303.15 K, 101 kPa, x1 = 0.07608 | 2.038
303.15 K, 101 kPa, x1 = 0.08641 | 2.013
303.15 K, 101.33 kPa, x1 = 0.0967 | 2.02
303.15 K, 101.33 kPa, x1 = 0.186 | 1.771
303.15 K, 101.33 kPa, x1 = 0.2863 | 1.501
303.15 K, 101.33 kPa, x1 = 0.4131 | 1.177
303.15 K, 101.33 kPa, x1 = 0.514 | 0.9669
303.15 K, 101.33 kPa, x1 = 0.6196 | 0.7833
303.15 K, 101.33 kPa, x1 = 0.7178 | 0.6396
303.15 K, 101.33 kPa, x1 = 0.8121 | 0.5233
303.15 K, 101.33 kPa, x1 = 0.9017 | 0.433
313.15 K, 101.33 kPa, x1 = 0.0967 | 1.617
313.15 K, 101.33 kPa, x1 = 0.186 | 1.427
313.15 K, 101.33 kPa, x1 = 0.2863 | 1.218
313.15 K, 101.33 kPa, x1 = 0.4131 | 0.9675
313.15 K, 101.33 kPa, x1 = 0.514 | 0.7924
313.15 K, 101.33 kPa, x1 = 0.6196 | 0.6548
313.15 K, 101.33 kPa, x1 = 0.7178 | 0.5412
313.15 K, 101.33 kPa, x1 = 0.8121 | 0.4506
313.15 K, 101.33 kPa, x1 = 0.9017 | 0.3783

Oc1ccccc1Cl + CCCCOCCO
viscosity [mPa·s], 101 kPa
Conditions | x1 = 0.1256 | x1 = 0.2442 | x1 = 0.3565 | x1 = 0.4628 | x1 = 0.5638 | x1 = 0.6597 | x1 = 0.751 | x1 = 0.8379 | x1 = 0.9208
303.15 K | 3.306 | 4.125 | 4.745 | 5.08 | 5.13 | 4.92 | 4.5 | 3.975 | 3.396
308.15 K | 2.934 | 3.49 | 3.876 | 4.084 | 4.093 | 3.935 | 3.654 | 3.302 | 2.895
313.15 K | 2.604 | 2.992 | 3.267 | 3.404 | 3.405 | 3.298 | 3.106 | 2.847 | 2.563
318.15 K | 2.282 | 2.554 | 2.738 | 2.82 | 2.833 | 2.754 | 2.624 | 2.45 | 2.254

CCCN + CCCCOCCOCCO
298.15 K, 101 kPa
Conditions | viscosity [mPa·s]
x2 = 0.0104 | 0.381
x2 = 0.0212 | 0.404
x2 = 0.0381 | 0.44
x2 = 0.0898 | 0.562
x2 = 0.1063 | 0.602
x2 = 0.129 | 0.668
x2 = 0.164 | 0.78
x2 = 0.1944 | 0.884
x2 = 0.2231 | 1.003
x2 = 0.2623 | 1.178
x2 = 0.3079 | 1.4
x2 = 0.327 | 1.505
x2 = 0.3856 | 1.851
x2 = 0.4114 | 2.011
x2 = 0.4443 | 2.23
x2 = 0.4782 | 2.46
x2 = 0.5424 | 2.9
x2 = 0.5729 | 3.115
x2 = 0.6163 | 3.404
x2 = 0.6419 | 3.571
x2 = 0.6779 | 3.79
x2 = 0.7205 | 4.031
x2 = 0.7508 | 4.193
x2 = 0.7957 | 4.402
x2 = 0.8278 | 4.535
x2 = 0.8577 | 4.647
x2 = 0.8744 | 4.703
x2 = 0.9181 | 4.837
x2 = 0.9513 | 4.925
x2 = 0.9752 | 4.986
